Measurements as given in patent US6274715A, “Tricyclic erythromycin derivatives” (priority 1997, dated 2001).
≈ marks a conversion by molar mass, not a printed value.

What was measured:
Format in all cases: cell-based
[1] = system: PSEUDOMONAS CEPACIA 296I; experiment: In vitro antibacterial activity, MIC, BHI agar dilution; settings: P. cepacia 296I, unit assumed
[2] = system: STAPHYLOCOCCUS AUREUS CMX 642A; experiment: as above; settings: S. aureus CMX 642A, unit assumed
[3] = system: PSEUDOMONAS AERUGINOSA 5007; experiment: as above; settings: P. aeruginosa 5007, unit assumed
[4] = system: STAPHYLOCOCCUS AUREUS ATCC 6538P; experiment: as above; settings: S. aureus ATCC 6538P, 35-37° C., 20 to 24 hours, unit assumed
[5] = system: ESCHERICHIA COLI H560; experiment: as above; settings: E. coli H560, unit assumed
[6] = system: CANDIDA ALBICANS CCH 442; experiment: as above; settings: C. albicans CCH 442, unit assumed
[7] = system: STAPHYLOCOCCUS EPIDERMIDIS 3519; settings: S. epidermidis 3519; BHI agar; unit assumed
[8] = system: PSEUDOMONAS AERUGINOSA DPHD-2862; experiment: In vitro antibacterial activity, MIC, BHI agar dilution; settings: P. aeruginosa DPHD-2862, unit assumed
[9] = system: STREPTOCOCCUS PYOGENES EES61; experiment: as above; settings: S. pyogenes EES61, unit assumed
[10] = system: STAPHYLOCOCCUS AUREUS A-5278; experiment: as above; settings: S. aureus A-5278, unit assumed
[11] = system: PSEUDOMONAS AERUGINOSA BMH10; experiment: as above; settings: P. aeruginosa BMH10, unit assumed
[12] = system: STAPHYLOCOCCUS AUREUS 1775; experiment: as above; settings: S. aureus 1775, unit assumed
[13] = system: ESCHERICHIA COLI SS; experiment: as above; settings: E. coli SS, unit assumed
[14] = system: ESCHERICHIA COLI KNK 437; settings: E. coli KNK 437; BHI agar; unit assumed
[15] = system: STR[…] 508; experiment: In vitro antibacterial activity, MIC, BHI agar dilution; settings: S. agalactiae CMX 508, unit assumed
Outline: (§1)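 Twelve successive aqueous dilutions of compound in Brain Heart Infusion agar were inoculated with 1:100 culture dilutions (1:10 for slow growers such as Micrococcus, Streptococcus) by Steers replicator and incubated at 35-37° C for 20 to 24 hours. MIC was the lowest concentration giving no growth, slight haze or sparse colonies versus drug-free control.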

[16] = system: M[…] ATCC 4698; experiment: as above; settings: M. luteus ATCC 4698, unit assumed
Outline: as §1

[17] = system: M[…] ATCC 9341; experiment: as above; settings: M. luteus ATCC 9341, unit assumed
Outline: as §1

[18] = system: EN[…] ATCC 8043; experiment: as above; settings: E. faecium ATCC 8043, unit assumed
Outline: as §1

[19] = system: STAPHYLOCOCCUS AUREUS A5177; experiment: as above; settings: S. aureus A5177, unit assumed
[20] = system: PSEUDOMONAS AERUGINOSA K799/61; experiment: as above; settings: P. aeruginosa K799/61, unit assumed
[21] = system: PROVIDENCIA STUARTII CMX 640; settings: P. stuartii CMX 640; BHI agar; unit assumed
[22] = system: ENTEROBACTER AEROGENES ATCC 13048; experiment: In vitro antibacterial activity, MIC, BHI agar dilution; settings: E. aerogenes ATCC 13048, unit assumed
[23] = system: ACINETOBACTER CALCOACETICUS CMX 669; experiment: as above; settings: A. calcoaceticus CMX 669, unit assumed
[24] = system: KLEBSIELLA PNEUMONIAE ATCC 8045; experiment: as above; settings: K. pneumoniae ATCC 8045, unit assumed
[25] = system: ESCHERICHIA COLI DC-2; experiment: as above; settings: E. coli DC-2, unit assumed
[26] = system: PSEUDOMONAS AERUGINOSA DPHD-5263; experiment: as above; settings: P. aeruginosa DPHD-5263, unit assumed
[27] = system: STAPHYLOCOCCUS AUREUS NCTC10649M; experiment: as above; settings: S. aureus NCTC10649M, unit assumed
[28] = system: STAPHYLOCOCCUS AUREUS CMX 553; experiment: as above; settings: S. aureus CMX 553, unit assumed
[29] = system: STREPTOCOCCUS PYOGENES 930; experiment: as above; settings: S. pyogenes 930, unit assumed
[30] = system: STREPTOCOCCUS PYOGENES PIU 2548; experiment: as above; settings: S. pyogenes PIU 2548, unit assumed
[31] = system: MYCOBACTERIUM SMEGMATIS ATCC 114; experiment: as above; settings: M. smegmatis ATCC 114, unit assumed
[32] = system: STREPTOCOCCUS BOVIS A-5169; experiment: as above; settings: S. bovis A-5169, unit assumed
[33] = system: PSEUDOMONAS AERUGINOSA K799/WT; experiment: as above; settings: P. aeruginosa K799/WT, unit assumed

| SMILES | MIC [1] [µg/mL] | MIC [2] [µg/mL] | MIC [3] [µg/mL] | MIC [4] [µg/mL] | MIC [5] [µg/mL] | MIC [6] [µg/mL] | MIC [7] [µg/mL] | MIC [8] [µg/mL] | MIC [9] [µg/mL] | MIC [10] [µg/mL] | MIC [11] [µg/mL] | MIC [12] [µg/mL] | MIC [13] [µg/mL] | MIC [14] [µg/mL] | MIC [15] [µg/mL] | MIC [16] [µg/mL] | MIC [17] [µg/mL] | MIC [18] [µg/mL] | MIC [19] [µg/mL] | MIC [20] [µg/mL] | further results |
| --- | --- | --- | --- | --- | --- | --- | --- | --- | --- | --- | --- | --- | --- | --- | --- | --- | --- | --- | --- | --- | --- |
| CC[C@H]1OC(=O)[C@H](C)C(=O)[C@H](C)[C@@H](O[C@@H]2O[C@H](C)C[C@H](N(C)C)[C@H]2O)[C@](C)(OC)C[C@@H](C)C2=NC[C@H](Cc3ccc(NC(=O)OCc4ccccc4)cc3)N3C(=O)O[C@@]1(C)[C@H]3[C@H]2C [Example 68] | > 100 | 0.2 (≈ 0.228 µM) | > 100 | 0.2 (≈ 0.228 µM) | 50 (≈ 57 µM) | > 100 | 0.39 (≈ 0.445 µM) | > 100 | 0.1 (≈ 0.114 µM) | > 100 | > 100 | > 100 | 1.56 (≈ 1.78 µM) | > 100 | 0.05 (≈ 0.057 µM) | 0.39 (≈ 0.445 µM) | 0.1 (≈ 0.114 µM) | 0.2 (≈ 0.228 µM) | 0.2 (≈ 0.228 µM) | 3.1 (≈ 3.53 µM) | MIC [21]: > 100 µg/mL; MIC [22]: > 100 µg/mL; MIC [23]: 100 µg/mL (≈ 114 µM); MIC [24]: > 100 µg/mL; MIC [25]: 100 µg/mL (≈ 114 µM); MIC [26]: > 100 µg/mL; MIC [27]: 0.2 µg/mL (≈ 0.228 µM); MIC [28]: 0.2 µg/mL (≈ 0.228 µM); MIC [29]: 50 µg/mL (≈ 57 µM); MIC [30]: 0.78 µg/mL (≈ 0.889 µM); MIC [31]: 3.1 µg/mL (≈ 3.53 µM); MIC [32]: 0.05 µg/mL (≈ 0.057 µM); MIC [33]: > 100 µg/mL |
| CC[C@H]1OC(=O)[C@H](C)C(=O)[C@H](C)[C@@H](O[C@@H]2O[C@H](C)C[C@H](N(C)C)[C@H]2O)[C@](C)(OC)C[C@@H](C)C2=NC3COCC3N3C(=O)O[C@@]1(C)[C@H]3[C@H]2C (stereo partly drawn) [Example 108] | > 100 | 0.78 (≈ 1.15 µM) | > 100 | 0.39 (≈ 0.574 µM) | > 100 | > 100 | 1.56 (≈ 2.29 µM) | > 100 | 0.1 (≈ 0.147 µM) | > 100 | > 100 | > 100 | 0.78 (≈ 1.15 µM) | > 100 | 0.1 (≈ 0.147 µM) | 0.78 (≈ 1.15 µM) | 0.1 (≈ 0.147 µM) | 0.2 (≈ 0.294 µM) | 0.39 (≈ 0.574 µM) | 6.2 (≈ 9.12 µM) | MIC [21]: > 100 µg/mL; MIC [22]: > 100 µg/mL; MIC [23]: 100 µg/mL (≈ 147 µM); MIC [24]: > 100 µg/mL; MIC [25]: > 100 µg/mL; MIC [26]: > 100 µg/mL; MIC [27]: 0.78 µg/mL (≈ 1.15 µM); MIC [28]: 0.78 µg/mL (≈ 1.15 µM); MIC [29]: > 100 µg/mL; MIC [30]: 0.39 µg/mL (≈ 0.574 µM); MIC [31]: 12.5 µg/mL (≈ 18.4 µM); MIC [32]: 0.02 µg/mL (≈ 0.0294 µM); MIC [33]: > 100 µg/mL |
